According to patent publication US7453006B2, “Inositol derivatives for increasing chloride secretion and inhibiting inflammation” (Inologic, Inc., priority 2000, dated 2008):
Where “and” joins values, the source holds several entries; their conditions need not be identical. Identical values can stand only once. Entries after “also recorded” stand apart in the source; their conditions may differ.

How the values were obtained:
[1] = system: T84 cells; assay: Colonic Epithelial Cell Assay (Isc across T84 monolayers, Ussing chambers); type: cell-based, human; settings: for increase in short circuit current (Isc): T84 monolayers in Ussing chambers, differing concentrations (text: colonic and airway epithelial cells); for Isc response to carbachol / inhibition of the Isc response to carbachol / Isc response to thapsigargin following carbachol: 30 min preincubation
Experimental: Cl^− secretion in colonic epithelial cells was measured as short circuit current (Isc) across T84 monolayers grown to confluence on Snap-wells (Costar) and mounted in Ussing chambers equipped with voltage clamps (Physiologic Instruments, San Diego). Data was acquired and analyzed using AAcquire and Analyze@ software (Physiologic Instruments). T84 cells (passages 18-48) were maintained as described previously in McRoberts, J. A. et al., “Cyclic AMP and Ca^2+-activated K^+ transport pathway in the apical membrane of a human colonic epithelial cell line,” J. Biol. Chem. 260:14163-14172 (1985). After […] of incubation on Snap-wells, monolayers had formed tight junctions and were preincubated with […] Bt2D-myo-Ins(3,4,5,6)P4/AM for 30-min. prior to mounting. An extracellular concentration of 200 uM corresponds to an intracellular concentration of 4 uM (Vajanaphnich, et al., “Long-term uncoupling of chloride secretion from intracellular calcium levels by Ins(3,4,5,6)P4,” Nature 371:711-714 (1994)). […]

[2] = system: CF Human Nasal Epithelial (CFHNE) cells; assay: Cystic Fibrosis Human Nasal Epithelial Cell Assay (Isc, Ussing chambers); type: cell-based
Experimental: CF Human Nasal Epithelial (CFHNE) Cell Isolation and Proliferation
Nasal Polyps were surgically obtained from a CF patient at Children's Hospital (Seattle, Wash.), transported on ice in a sterile container containing a 1:1 mixture of Dulbecco's modification of minimum essential medium Eagle and Ham's F-12 nutrient medium (DMEM/F-12) (Irvine Scientific, Santa Ana, Calif.) supplemented with 100 U/mL penicillin, 0.1 mg/mL streptomycin, 10 mM HEPES, and 2 mM L-glutamine. The tissue samples were aseptically removed from the transport medium and washed (repeated 5 times) by suspending in 40 mL of Joklik's modification of minimum essential medium Eagle (JMEM) at 4° C., and centrifuging at 500 rpm. The supernatant was aspirated and discarded. The tissue was then transferred to JMEM containing 200 U/mL penicillin, 0.2 mg/mL streptomycin, 0.1 mg/mL gentamycin sulfate (Clonetics, San Diego, Calif.), and 0.1 μg/mL amphotericin-B (Clonetics), and 0.1% Protease, washed an additional two times, suspended in […] in a 10 cm tissue culture dish, and incubated at 4° C. for 24 hours. The tissue samples were then gently triturated, the connective tissue aseptically removed, and the remaining cell suspension centrifuged at 1000 rpm. The supernatant was aspirated and the pellet was resuspended in 10 mL proliferation media, consisting of Keratinocyte-Serum Free Medium (KSFM) (Gibco-BRL, Grand Island, N.Y.) containing 5 ng/ml EGF (Gibco), 50 μg/mL BPE (Gibco), 5 μg/mL insulin, 5 μg/mL transferrin, 5 μg/ml sodium selenite, 10 nM 3,3′,5-triiodo-L-thyronine, 200 nM hydrocortisone, 100 U/mL penicillin, 0.1 mg/mL streptomycin, and 2 mM L-glutamine. The cell suspension was transferred to 2.10 cm tissue culture dishes coated with 3 μg/cm^2 rat-tail collagen (Type I) (Becton-Dickinson, Bedford, Mass.), incubated at 37° C. in an humidified atmosphere of 5% CO2 and 95% air. The cells were allowed to grow for 6 days (˜70% confluence) with the media being replaced with fresh media every other day. The cells were then trypsinized using 0.025% trypsin-EDTA for 5 min. The cell suspension was collected, the trypsin deactivated with 10% Fetal Bovine Serum, and centrifuged at 1000 rpm for 5 min. The cells were then counted using an hemocytometer with a yield of 3×10^6 cells per dish. The supernatant was aspirated and the cells were resuspended in KSFM and plated at a density of 10^4 cells/cm^2.
CFHNE Cell Ussing Chamber Preparation
The CFHNE cells were prepared for Ussing Chamber studies using Snapwell permeable supports (0.4 μm pore size) (Corning Costar, Cambridge, Mass.) coated with 3 μg/cm^2 rat-tail collagen (type 1). Cells were plated at 9×10^3 cells/cm^2 in KSFM. After 2 days, an air-liquid interface (ALI) was initiated in DMEM/F-12 containing: 2% Fetal Clone III (Hyclone, Logan, Utah), 2.5 μg/mL insulin, 2.5 μg/mL transferrin, 2.5 μg/mL sodium selenite, 20 nM hydrocortisone, 1.5 μM epinephrine, 50 μg/mL BPE, 1 nM 3,3′,5-triiodo-L-thyronine, 3.3 nM All-trans retinoic acid, 250 nM ethanolamine, 250 nM O-phosporylethanolamine, 100 U/mL penicillin, 0.1 mg/ml streptomycin, and 2 mM L-glutamine. The CFHNE monolayers reached maximal resistance (˜200 Ω/cm^2) 5-7 days after initiation of ALI. All media/reagents, unless otherwise specified, were supplied by Sigma Chemical Co., St. Louis, Mo.

[3] = system: arachidonic acid-induced inflammation in mouse ears; assay: arachidonic acid-induced inflammation in mouse ears; type: in vivo; settings: for Ear Thickness: 20 nanomoles/ear topical 30 min before arachidonic acid, measured 60 min after arachidonic acid, control 56.5 ± 1.57
Experimental: Arachidonic Acid (Nu-Chek, Elysian, Minn. 56028); Indomethacin (stock=12.5 mg/mL acetone). Prednisolone (Sigma Chem, P6004) 20 mM dissolved in acetone; Animals: Female Balb/c mice (B&K laboratories) and Swiss-Webster hybrid (B& K Laboratory, Kent, Wash.)
The right ear of each mouse was used for the test compound. Unless otherwise indicated each compound was adjusted to 20 mM by dilution into DMSO or DMSO/5% Pluronic F127 as indicated and 1 or 2 microliters were applied to the test ear. Thirty minutes after each compound was applied, 4 mg arachidonic acid was applied (4 μL/ear; 2 μL/side) to both ears of each mouse. Measurements of edema were taken 60 min after the application of arachidonic acid with microcalipers (Oditest, Scientific Supply and Equipment) unless otherwise indicated. The results are shown in FIG. 15 as millimeters×10^−2 measured at the thickest point of each ear. Control measurements were performed on ears that were only treated with arachidonic acid.
Response to prednisolone (20 μL of 20 mM/ear; 10 μl/side) added 3 hrs prior 20′ to arachidonic acid or indomethacin (5 μg/ear) added 30 min prior to test compounds was determined. The results are shown in Table A, where the anti-inflammatory/inflammatory effects of 20 nanomoles/ear of the indicated compounds were tested as described in Methods. Each plus represents a change from control (arachidonic acid alone) of 2.5 mm×10^−2. Effects were compared with those of Indomethacin (400 nmols/ear).
Acute inflammation: Membrane permeant inositol polyphosphate analogs were administered topically and tested for inhibition of inflammatory symptoms induced by arachidonic acid on the ear of Swiss Webster mice.

[4] = topical, ear of Swiss Webster mice

With “2,3,5-tri-O-butyryl-myo-inositol 1,4,6-trisphosphate hexakis(proprionoxymethyl)ester [TMX]” the “increase in short circuit current (Isc)” value [1] was “prolonged increase in Isc similar to cyclic AMP” and the “prolonged decrease in Isc after ATP (negative component of the ATP effect)” value ([2]; CFHNE monolayers exposed to TMX for 10 min, ATP 10^−4 M) was “attenuated; also recorded: reverse the negative component of the ATP effect on Isc”.

In the case of “2,3,5-tri-O-butyryl-myo-inositol 1,4,6-trisphosphate hexakis-(acetoxymethyl) ester [TMX/AM]”, the “Ear Thickness” value [3] is reported as 44.1 ± 2.3 mm × 10^−2.

With `CCCC(=O)OC1C(OP(=O)(OCOC(C)=O)OCOC(C)=O)C(OP(=O)(OCOC(C)=O)OCOC(C)=O)C(OP(=O)(OCOC(C)=O)OCOC(C)=O)C(OP(=O)(OCOC(C)=O)OCOC(C)=O)C1(CCC)OP(=O)(OCOC(C)=O)OCOC(C)=O` (racemic) [Compound D, rac-1-O-butyryl-2-C-propyl-myo-inositol 2,3,4,5,6-pentakisphosphate-dekakis(acetoxymethyl) ester] the “Ear Thickness” value [3] was 44.0 ± 1.4 mm × 10^−2 and 44.2 ± 6.5 mm × 10^−2, the “basal Isc” value ([1]; 200 μM, acute treatment, T84) was “small increase in basal Isc; also recorded: small acute effect increasing basal Isc” and the “subsequent carbachol-stimulated Isc” value ([1]; 200 μM, acute treatment, T84) was “little effect”.

With `Nc1ncnc2c1ncn2[C@@H]1O[C@H](COP(=O)(O)OP(=O)(O)OP(=O)(O)O)[C@@H](O)[C@H]1O` [ATP, adenosine triphosphate, reference compound] the “Isc after ATP” value ([2]; ATP 10^−4 M, monolayers pretreated with vehicle) was “transient increase in Isc followed by a prolonged decrease”.

With `N=C(N)NC(=O)c1nc(Cl)c(N)nc1N` [Amiloride, amiloride, reference compound] the “decrease in Isc” value ([2]; amiloride 100 μM, apical compartment, in 19 of 23 monolayers) was 1.01 μAmps/cm^2.

For `COCCOCOC12CCCCOC1C(OP(=O)(OCOC(C)=O)OCOC(C)=O)C(OP(=O)(OCOC(C)=O)OCOC(C)=O)C(OP(=O)(OCOC(C)=O)OCOC(C)=O)C2OP(=O)(OCOC(C)=O)OCOC(C)=O` (centres unmarked) [Compound C, (5aa,6a,7b,8a,9b,9aa)-6,7,8,9-tetrakis[[bis(acetoxymethoxy)-phosphoryl]oxy]-5a-[(2′-methoxy)ethoxy]methoxy-decahydro-benzo[b]oxepin], the “Ear Thickness” value [3] was 50.0 ± 5.5 mm × 10^−2, the “Isc response to carbachol” value ([1]; 200 μM, T84) was “reduces the magnitude” and the “inhibition of the Isc response to carbachol” value ([1]; 200 μM, T84) was “approximately 50%”. For the same compound, the “Isc response to carbachol” value ([1]; 400 μM, T84) was “reduces the magnitude”, the “Isc response to thapsigargin following carbachol” value ([1]; 400 μM, T84) was “partially restores the response of the monolayers to thapsigargin” and the “inhibition of the Isc response to carbachol” value ([1]; 400 μM, T84) was “approximately 50%”.

With `CCCC(=O)OC12CCCOC1C(OP(=O)(OCOC(C)=O)OCOC(C)=O)C(OP(=O)(OCOC(C)=O)OCOC(C)=O)C(OP(=O)(OCOC(C)=O)OCOC(C)=O)C2OP(=O)(OCOC(C)=O)OCOC(C)=O` (centres unmarked) [Compound G, (4aa, 5a,6b,7a,8b,8aa)-5,6,7,8-tetrakis[[bis(acetoxymethoxy)-phosphoryl]oxy]-4a-butyryloxy-octahydro-chromen] the “Isc response to carbachol” value ([1]; 200 μM, T84) was “did not affect” and the “Isc response to thapsigargin following carbachol” value ([1]; 200 μM, T84) was “reversed the inhibition of thapsigargin induced chloride secretion; also recorded: reverses the carbachol-mediated inhibition of thapsigargin-stimulated increase in Isc”.

With `CCCC(=O)OC1C(OC(=O)CCC)C(OP(=O)(OCOC(C)=O)OCOC(C)=O)C(OP(=O)(OCOC(C)=O)OCOC(C)=O)C(OP(=O)(OCOC(C)=O)OCOC(C)=O)C1OP(=O)(OCOC(C)=O)OCOC(C)=O` [D-2,3-Di-O-butyryl-myo-inositol 1,4,5,6 tetrakisphosphate octakis(acetoxymethyl)ester, reference compound] the “dose with inhibitory effect comparable in intensity to that of indomethacin (250 μg/animal)” value [3, 4] was 20-30 μg/animal.

For `CCCC(=O)OC1C(OC(=O)CCC)C(OP(=O)(OCOC(=O)CC)OCOC(=O)CC)C(OP(=O)(OCOC(=O)CC)OCOC(=O)CC)C(OP(=O)(OCOC(=O)CC)OCOC(=O)CC)C1OP(=O)(OCOC(=O)CC)OCOC(=O)CC` [D-2,3-Di-O-butyryl-myo-inositol 1,4,5,6 tetrakisphosphate octakis(propionoxymethyl)ester], the “topical anti-inflammatory effects, values” [3, 4] was 0.25-1.5 μg/animal.

In the case of `CC(=O)OCOP(=O)(OCOC(C)=O)O[C@@H]1[C@@H](OP(=O)(OCOC(C)=O)OCOC(C)=O)[C@@H]2O[C@H]3CCC[C@@]2(O3)[C@H](OP(=O)(OCOC(C)=O)OCOC(C)=O)[C@H]1OP(=O)(OCOC(C)=O)OCOC(C)=O` [Tri-cyclo, (1S, 2R, 3S, 4R, 5S, 6S, 8R)-2,3,4,5-tetrakis[[bis-(acetoxymethoxy)phosphoryl]oxy]-7,12-dioxa-tricyclo-[6.3.1.0(1,6)]-dodecane], the “Ear Thickness” value [3] is reported as 49.8 ± 2.5 mm × 10^−2.

For `CCCC(=O)O[C@@H]1[C@H](OC(=O)CCC)[C@H](OP(=O)(OCOC(=O)CC)OCOC(=O)CC)[C@@H](OP(=O)(OCOC(=O)CC)OCOC(=O)CC)[C@H](OC(=O)CCC)[C@H]1OP(=O)(OCOC(=O)CC)OCOC(=O)CC` [ent-TMX, 1,2,5-tri-O-butyryl-myo-inositol 3,4,6-trisphosphate hexakis-(proprionoxymethyl) ester], the “increase in short circuit current (Isc)” value [1] was “inactive”.
